According to US9617310B2 (priority 2013, dated 2017):

Key:
[1] = test system: genotype 4a stable HCV replicon (ED43) in Huh-7-derived cells; experiment: Stable subgenomic HCV replicon, genotype 4a, Renilla luciferase; assay type: cell-based; conditions: Hepatitis C virus, 72 h, read-out: EC50 4A RLUC
How it was run: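 Replicons carry hRLuc-neo, EMCV IRES and NS3-NS5B with adaptive mutations: 1a H77 P1496L/S2204I, 1b Con1 E1202G/T1280I/K1846T, 4a ED43 Q1691R/S2204I. EC50 came from non-linear regression versus DMSO and a triple-inhibitor full-inhibition control.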

[2] = test system: genotype 2a stable HCV replicon (JFH-1) in Huh-7-derived cells; experiment: Stable subgenomic HCV replicon, genotype 2a, Renilla luciferase; assay type: cell-based; conditions: Hepatitis C virus, stable replicon genotype 2a, 72 h, read-out: EC50 2A RLUC
[3] = test system: genotype 1b wild-type transient HCV replicon in Huh-7-derived cells; experiment: Transient-transfected HCV replicon, genotype 1b wild type; assay type: cell-based; conditions: Hepatitis C virus; transient-transfected replicon genotype 1b wild type, 72 h; read-out: EC50 1B WT
[4] = test system: NS3/4a protease inhibitor resistant variant D168A in genotype 1b transient HCV replicon; experiment: Transient-transfected HCV replicon, genotype 1b D168A; assay type: cell-based; conditions: Hepatitis C virus, 72 h, read-out: EC50 1B D168A
NS3 genotype 1b protease = biological target: T1, NS3 genotype 1b protease (Hepatitis C virus genotype 1b, UniProt Q9WMX2, E1202G); experiment: Ki determination, NS3 protease genotype 1b (fluorogenic depsipeptide substrate); assay type: biochemical; conditions: NS3 protease domain genotype 1b, NS4A peptide
T1 construct: Purified NS3 protease domain (amino acids 1-181) of the genotype 1b and 3a virus were generated as above; K3 hexahistidine tag (N); rTEV protease cleavage site (N); made in house; host or cells: E. coli BL21AI
T1 sequence (Q9WMX2 1027-1207 E1202G, other chains not shown): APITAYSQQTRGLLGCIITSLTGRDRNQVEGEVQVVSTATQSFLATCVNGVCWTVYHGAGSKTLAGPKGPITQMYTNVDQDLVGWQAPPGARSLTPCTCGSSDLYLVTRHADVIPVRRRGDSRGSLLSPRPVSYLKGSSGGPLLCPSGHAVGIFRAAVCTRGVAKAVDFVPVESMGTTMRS
How it was run: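 NS3 protease domain (aa 1-181), 50 pM (1b) or 200 pM (3a), with 20 μM NS4A peptide, pre-incubated 1 h with inhibitor (100 nM–5 pM); 4 μM (1b) or 2 μM (3a) FRET depsipeptide substrate, room temperature, pH-unspecified HEPES buffer with 40% glycerol, 10% DMSO. Steady-state rates at 90–120 min (ex 340/em 490); Morrison fit gave Ki^app, corrected to Ki via substrate/Km.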

[5] = test system: genotype 3a stable HCV replicon (S52) in Huh-7-derived cells; experiment: Stable subgenomic HCV replicon, genotype 3a, Renilla luciferase; assay type: cell-based; conditions: Hepatitis C virus, 72 h, read-out: EC50 3A RLUC
[6] = test system: genotype 3a transient HCV replicon (S52) in Huh-7-derived cells; experiment: Transient-transfected HCV replicon, genotype 3a wild type; assay type: cell-based; conditions: Hepatitis C virus; transient-transfected replicon genotype 3a wild type, 72 h; read-out: EC50 3A WT

Row | Structure (SMILES) | EC50 [1] [nM] | EC50 [2] [nM] | EC50 [3] [nM] | EC50 [4] [nM] | Ki (NS3 genotype 1b protease) [nM] | EC50 [5] [nM] | EC50 [6] [nM]
1 | CC(C)(C)[C@@H]1NC(=O)O[C@@H]2C[C@@H]3C[C@@H]3[C@H]2CC/C=C/C(F)(F)c2nc3ccc(C#N)cc3nc2O[C@@H]2C[C@@H](C(=O)N[C@]3(C(=O)NS(=O)(=O)C4(C)CC4)C[C@H]3C(F)F)N(C2)C1=O [Example 13, (1aS,2aR,6S,9S,11R,20E,23aR,23bS)-6-tert-butyl-15-cyano-N-[(1R,2R)-2-(difluoromethyl)-1-{[(1-methylcyclopropyl)sulfonyl]carbamoyl}cyclopropyl]-19,19-difluoro-4,7-dioxo-1a,2,2a,4,5,6,7,10,11,19,22,23,23a,23b-tetradecahydro-1H,9H-8,11-methanocyclopropa[4′,5′]cyclopenta[1′,2′18,19][1,10,3,6]dioxadiazacyclononadecino[11,12-b]quinoxaline-9-carboxamide] | 3.6 | 1.4 | 0.99 | 1.1 | 0.02 | 7.2 | 2.8
2 | CC(C)(C)[C@@H]1NC(=O)O[C@@H]2C[C@@H]3C[C@@H]3[C@H]2CCCCC(F)(F)c2nc3ccc(C#N)cc3nc2O[C@@H]2C[C@@H](C(=O)N[C@]3(C(=O)NS(=O)(=O)C4(C)CC4)C[C@H]3C(F)F)N(C2)C1=O [Example 14, (1aS,2aR,6S,9S,11R,23aR,23bS)-6-tert-butyl-15-cyano-N-[(1R,2R)-2-(difluoromethyl)-1-{[(1-methylcyclopropyl)sulfonyl]carbamoyl}cyclopropyl]-19,19-difluoro-4,7-dioxo-1a,2,2a,4,5,6,7,10,11,19,20,21,22,23,23a,23b-hexadecahydro-1H,9H-8,11-methanocyclopropa[4′,5′]cyclopenta [1′,2′:18,19][1,10,3,6]dioxadiazacyclononadecino[11,12-b]quinoxaline-9-carboxamide] | 1.4 | 1.4 | 0.55 | 0.65 | 0.01 | 5 | 1.4
3 | CC(C)(C)[C@@H]1NC(=O)O[C@@H]2C[C@@H]3C[C@@H]3[C@H]2CCCCC(F)(F)c2nc3ccc(OC(F)F)cc3nc2O[C@@H]2C[C@@H](C(=O)N[C@]3(C(=O)NS(=O)(=O)C4CC4)C[C@H]3C(F)F)N(C2)C1=O [Example 16, (1aS,2aR,6S,9S,11R,23aR,23bS)-6-tert-butyl-N-[(1R,2R)-1-[(cyclopropylsulfonyl)carbamoyl]-2-(difluoromethyl)cyclopropyl]-15-(difluoromethoxy)-19,19-difluoro-4,7-dioxo-1a,2,2a,4,5,6,7,10,11,19,20,21,22,23,23a,23b-hexadecahydro-1H,9H-8,11-methanocyclopropa[4′,5′]cyclopenta [1′,2′:18,19][1,10,3,6]dioxadiazacyclononadecino[11,12-b]quinoxaline-9-carboxamide] | 2.3 | 2.3 | 1.6 | 7.9 | 0.03 | 127 | 50
4 | CC(C)(C)[C@@H]1NC(=O)O[C@@H]2C[C@@H]3C[C@@H]3[C@H]2CCCCC(F)(F)c2nc3ccccc3nc2O[C@@H]2C[C@@H](C(=O)N[C@]3(C(=O)NS(=O)(=O)C4(C)CC4)C[C@H]3C(F)F)N(C2)C1=O [Example 17] | 4.8 | 2.7 | 1.3 | 2.7 | 0.01 | 26 | 7.1
5 | CC(C)(C)[C@@H]1NC(=O)O[C@@H]2C[C@@H]3C[C@@H]3[C@H]2CCCCC(F)(F)c2nc3ccccc3nc2O[C@@H]2C[C@@H](C(=O)N[C@]3(C(=O)NS(=O)(=O)C4CC4)C[C@H]3C(F)F)N(C2)C1=O [Example 18] | 4.2 | 2.6 | 1.6 | 2.6 | 0.01 | 18 | 4.9
6 | CC(C)(C)[C@@H]1NC(=O)O[C@@H]2C[C@@H]3C[C@@H]3[C@H]2CCCCCc2nc3ccc(Cl)cc3nc2O[C@@H]2C[C@@H](C(=O)N[C@]3(C(=O)NS(=O)(=O)C4CC4)C[C@H]3C(F)F)N(C2)C1=O [Example 19, (1aS,2aR,6S,9S,11R,23aR,23bS)-6-tert-butyl-15-chloro-N-[(1R,2R)-1-[(cyclopropylsulfonyl)carbamoyl]-2-(difluoromethyl)cyclopropyl]-4,7-dioxo-1a,2,2a,4,5,6,7,10,11,19,20,21,22,23,23a, 23b-hexadecahydro-1H,9H-8,11-methanocyclopropa[4′,5′]cyclopenta[1′,2′:18,19][1,10,3,6]dioxadiazacyclononadecino[11,12-b]quinoxaline-9-carboxamide] | 1.8 | 3.1 | 1.1 | 16 | 0.02 | 82 | 17
7 | COc1ccc2nc3c(nc2c1)O[C@@H]1C[C@@H](C(=O)N[C@]2(C(=O)NS(=O)(=O)C4(C)CC4)C[C@H]2CC(F)F)N(C1)C(=O)[C@H](C(C)(C)C)NC(=O)O[C@@H]1C[C@@H]2C[C@@H]2[C@H]1CCCCC3(F)F [Example 20, (1aS,2aR,6S,9S,11R,23aR,23bS)-6-tert-butyl-N-[(1R,2S)-2-(2,2-difluoroethyl)-1-{[(1-methylcyclopropyl)sulfonyl]carbamoyl}cyclopropyl]-19,19-difluoro-15-methoxy-4,7-dioxo-1a,2,2a,4,5,6,7,10,11,19,20,21,22,23,23a,23b-hexadecahydro-1H,9H-8,11-methanocyclopropa[4′,5′]cyclopenta[1′,2′:18,19][1,10,3,6]dioxadiazacyclononadecino[11,12-b]quinoxaline-9-carboxamide] | 5 | 5 | 4.1 | 6.3 | 0.04 | 46 | 12
8 | COc1ccc2cc3c(nc2c1)O[C@@H]1C[C@@H](C(=O)N[C@]2(C(=O)NS(=O)(=O)C4CC4)C[C@H]2C(F)F)N(C1)C(=O)[C@H](C(C)(C)C)NC(=O)O[C@@H]1C[C@@H]2C[C@@H]2[C@H]1CCCCC3 [Example 21, (1aS,2aR,6S,9S,11R,23aR,23bS)-6-tert-butyl-N-[(1R,2R)-1-[(cyclopropylsulfonyl)carbamoyl]-2-(difluoromethyl)cyclopropyl]-15-methoxy-4,7-dioxo-1a,2,2a,4,5,6,7,10,11,19,20,21,22,23,23a,23b-hexadecahydro-1H,9H-8,11-methanocyclopropa[4′,5′]cyclopenta[1′,2′:18,19][1,10,3,6]dioxadiazacyclononadecino[11,12-b]quinoline-9-carboxamide] | 1.4 | 3.5 | 0.61 | 22 | 0.02 | 115 | 36
